Results: patent US12721985B2, “Microneedle patch system for transdermal drug delivery” (INDUSTRY-ACADEMIC COOPERATION FOUNDATION GYEONGSANG …, priority 2021, dated 2026)

Test: Drug blood concentration pattern in rats after donepezil administration
Details: rat, in vivo
Protocol: More specifically, 3 mg/kg of donepezil was administered orally, 1 mg/kg of donepezil was administered subcutaneously, or 43 mg/kg of donepezil was administered using the microneedle patch prepared in the above example to rats, and the drug blood concentration patterns were compared.
Next, rats were administered donepezil at different concentrations of 43 mg/kg, 80 mg/kg, and 125 mg/kg using the microneedle patch prepared in the above example, respectively, and the drug blood concentration patterns were compared.
Next, after administering 80 mg/kg of donepezil to rats using the microneedle patch prepared in the above example, the drug blood concentration pattern was compared between the case where the needle was removed in 1 hour and the case where the needle was applied for 3 days.

Structure (SMILES): COc1cc2c(cc1OC)C(=O)C(CC1CCN(Cc3ccccc3)CC1)C2 (centres unmarked) [donepezil]
- time in which drug blood concentration was very low (po, 3 mg/kg): about 1 day
- time in which drug blood concentration was very low (sc, 1 mg/kg): about 1 day
